Counter-ions that a name gives are not always drawn.
Test system: NF-kB activation induced by TNFα
Experiment: TNFα Luciferase assay: inhibition of NF-kB activation induced by TNFα in HEK293/NF-kB luciferase cells
Type: cell-based
Conditions: 25 ng/ml of TNF-α for four hours, quadruplicate, read-out: IC50, concentration at which NF-kB activation was reduced by 50%
Procedure: Determination of Inhibition of NF-kB Activation Induced by TNFα . . . In Vitro Assay
The ability of a compound disclosed herein to inhibit NFkB activation induced by TNFα was determined using the TNFα Luciferase assay. The HEK293/NF-kB luciferase cell line was obtained by cotransfection of pNFkB-luc vector with pHyg (Panomics, CA, USA) followed by hygromycin selection. HEK293/NFkB Luciferase cells were grown in DMEM medium supplemented with 10% fetal bovine serum, 100 U/ml of penicillin, 100 ng/ml of streptomycin/Fungizone, and 100 μg/ml of hygromycin B as the selecting agent. HEK293 NFkB Luciferase cells were grown in T75 flasks (Nunc™ Cell Culture Treated EasYFlasks™) in a cell culture incubator at 37° C. and 5% CO2.
Confluent T75 cell culture flasks (approximately 8-10 million of cells per flask) were washed with 10 ml of sterile PBS (without calcium and magnesium) under a biosafety cabinet. After aspiration of the PBS with a sterile glass pipette, the layer of cells (for each T75 flask) was covered with 1 ml of TrypLE™ Express without phenol red (Gibco) at room temperature. After one minute of incubation, HEK293 were mechanically resuspended in the TrypLE by tapping the side of the flask. The cells were then resuspended with 10 ml of pre-warmed complete culture medium and transferred to a conical tube. Cells were centrifuged for 5 minutes at 4000 rpm (1000 g) at room temperature. The cellular pellet was resuspended with 24 ml of pre-warmed cell culture media and […] of cell suspension (approximately 80,000 cells per well) was plated per well in 96-well cell culture plates (Costar #3599, Corning, N.Y., USA) using a multichannel pipette and reversed pipetting to prevent air bubble formation. After plating, the cells were maintained overnight in the cell culture incubator before being treated. For each 96 well cell culture plate, 8 wells were used as “control wells” (only culture medium added) and to 8 wells only TNFα was added. The NF-kB Luciferase reporter cell line was challenged with 25 ng/ml of TNF-α for four hours in the presence and absence (control conditions) of a dose range of the different compounds to be tested. For each compound, a dose range of concentrations was tested in quadruplicate and used to determine an IC50.
Luciferase activity was monitored using the Luc-Screen® Extended-Glow Luciferase Reporter Gene Assay System by chemoluminescence according to the instruction of the manufacturer (Invitrogen) and a BioTek Synergy HT plate reader (BioTek Instruments, VT, USA).

IC50 | Molecule
750 µM | mixture of 2-((S)-1-oxo-1-((R)-6-(pyridin-3-yl)-5,6-dihydropyridin-1(2H)-yl)butan-2-yl)isoindoline-1,3-dione and 2-((R)-1-oxo-1-((S)-6-(pyridin-3-yl)-5,6-dihydropyridin-1(2H)-yl)butan-2-yl)isoindoline-1,3-dione [Compound 6]
925 µM | mixture of 2-((S)-1-oxo-1-((S)-6-(pyridin-3-yl)-5,6-dihydropyridin-1(2H)-yl)butan-2-yl)isoindoline-1,3-dione and 2-((R)-1-oxo-1-((R)-6-(pyridin-3-yl)-5,6-dihydropyridin-1(2H)-yl)butan-2-yl)isoindoline-1,3-dione [Compound 5]

Molecule | IC50
C[C@H](NC(=O)c1cccc([N+](=O)[O-])c1)C(=O)N1CC=CCC1c1cccnc1 (stereo partly shown) [Compound 9] | 200 µM

Same assay, conditions: Homo sapiens, 4 h, 25 ng/ml of TNF-α for four hours, quadruplicate, read-out: IC50, concentration at which NF-kB activation was reduced by 50%

IC50 | Molecule
2.8 µM | CCOc1cc(C(=O)N[C@H](Cc2ccccc2)C(=O)N2CC=CCC2c2cccnc2)ccc1OC (stereo partly drawn) [Compound 26, 3-ethoxy-4-methoxy-N-((2R)-1-oxo-3-phenyl-1-(6-(pyridin-3-yl)-5,6-dihydropyridin-1(2H)-yl)propan-2-yl)benzamide]
0.708 µM | CCCCn1cccc1C(=O)N[C@@H](Cc1ccccc1)C(=O)N1CC=CCC1c1cccnc1 (stereo partly drawn) [Compound 61, 1-butyl-N-((2S)-1-oxo-3-phenyl-1-(6-(pyridin-3-yl)-5,6-dihydropyridin-1(2H)-yl)propan-2-yl)-1H-pyrrole-2-carboxamide]
0.114 µM | CCCC(=O)Nc1ccc(C(=O)N[C@@H](Cc2ccccc2)C(=O)N2CC=CCC2c2cccnc2)cc1 (stereo partly drawn) [Compound 48, 4-butyramido-N-((2S)-1-oxo-3-phenyl-1-(6-(pyridin-3-yl)-5,6-dihydropyridin-1(2H)-yl)propan-2-yl)benzamide]
1.8 µM | CCOc1cccc(C(=O)N[C@@H](Cc2ccccc2)C(=O)N2CC=CCC2c2cccnc2)c1 (stereo partly drawn) [Compound 33, 3-ethoxy-N-((2S)-1-oxo-3-phenyl-1-(6-(pyridin-3-yl)-5,6-dihydropyridin-1(2H)-yl)propan-2-yl)benzamide]
0.125 µM | CCCC(=O)Nc1cccc(C(=O)NC(Cc2ccccc2)C(=O)N2CC=CCC2c2cccnc2)c1 (stereo not shown) [Compound 37, 3-butyramido-N-(1-oxo-3-phenyl-1-(6-(pyridin-3-yl)-5,6-dihydropyridin-1(2H)-yl)propan-2-yl)benzamide]
750 µM | CC(C)[C@@H](C(=O)N1CC=CC[C@H]1c1cccnc1)N1C(=O)c2ccccc2C1=O (single isomer, unassigned) [Compound 3]
1.5 µM | CCOc1cccc(C(=O)NC(Cc2ccccc2)C(=O)N2CC=CCC2c2cccnc2)c1 (stereo not shown) [Compound 20, 3-ethoxy-N-(1-oxo-3-phenyl-1-(6-(pyridin-3-yl)-5,6-dihydropyridin-1(2H)-yl)propan-2-yl)benzamide]
0.174 µM | O=C(N[C@@H](Cc1ccccc1)C(=O)N1CC=CCC1c1cccnc1)c1ccc2ccccc2n1 (stereo partly drawn) [Compound 49, N-((2S)-1-oxo-3-phenyl-1-(6-(pyridin-3-yl)-5,6-dihydropyridin-1(2H)-yl)propan-2-yl)quinoline-2-carboxamide]
0.121 µM | CC[C@H](C)C(=O)Nc1cccc(C(=O)N[C@@H](Cc2ccccc2)C(=O)N2CC=CCC2c2cccnc2)c1 (stereo partly drawn) [Compound 57, 3-((S)-2-methylbutanamido)-N-((2S)-1-oxo-3-phenyl-1-(6-(pyridin-3-yl)-5,6-dihydropyridin-1(2H)-yl)propan-2-yl)benzamide]
0.185 µM | CC[C@@H](C)C(=O)Nc1cccc(C(=O)N[C@@H](Cc2ccccc2)C(=O)N2CC=CCC2c2cccnc2)c1 (stereo partly drawn) [Compound 58, 3-((R)-2-methylbutanamido)-N-((2S)-1-oxo-3-phenyl-1-(6-(pyridin-3-yl)-5,6-dihydropyridin-1(2H)-yl)propan-2-yl)benzamide]
0.212 µM | NCC(=O)Nc1cccc(C(=O)N[C@@H](Cc2ccccc2)C(=O)N2CC=CCC2c2cccnc2)c1 (stereo partly drawn) [Compound 53, 3-(2-aminoacetamido)-N-((2S)-1-oxo-3-phenyl-1-(6-(pyridin-3-yl)-5,6-dihydropyridin-1(2H)-yl)propan-2-yl)benzamide hydrochloride]
140 µM | C[C@H](C(=O)N1CC=CCC1c1cccnc1)N1C(=O)c2ccccc2C1=O (stereo partly drawn) [Compound 17, 2-((2R)-1-oxo-1-(6-(pyridin-3-yl)-5,6-dihydropyridin-1(2H)-yl)propan-2-yl)isoindoline-1,3-dione]
0.15 µM | CCCCC(=O)Nc1cccc(C(=O)NC(Cc2ccccc2)C(=O)N2CC=CCC2c2cccnc2)c1 (stereo not shown) [Compound 36, N-(1-oxo-3-phenyl-1-(6-(pyridin-3-yl)-5,6-dihydropyridin-1(2H)-yl)propan-2-yl)-3-pentanamidobenzamide]
8.6 µM | COc1ccccc1C(=O)N[C@H](Cc1ccccc1)C(=O)N1CC=CCC1c1cccnc1 (stereo partly drawn) [Compound 32, 2-methoxy-N-((2R)-1-oxo-3-phenyl-1-(6-(pyridin-3-yl)-5,6-dihydropyridin-1(2H)-yl)propan-2-yl)benzamide]
276 µM | C[C@H](NC(=O)c1ccc([N+](=O)[O-])cc1)C(=O)N1CC=CCC1c1cccnc1 (stereo partly drawn) [Compound 13, 4-nitro-N-((2S)-1-oxo-1-(6-(pyridin-3-yl)-5,6-dihydropyridin-1(2H)-yl)propan-2-yl)benzamide]
0.285 µM | CCCC(=O)Nc1cccc(C(=O)N[C@@H](Cc2cccc3ccccc23)C(=O)N2CC=CCC2c2cccnc2)c1 (stereo partly shown) [Compound 64, 3-butyramido-N-((2 S)-3-(naphthalen-1-yl)-1-oxo-1-(6-(pyridin-3-yl)-5,6-dihydropyridin-1 (2H)-yl)propan-2-yl)benzamide]
0.186 µM | NCCC(=O)Nc1cccc(C(=O)N[C@@H](Cc2ccccc2)C(=O)N2CC=CCC2c2cccnc2)c1 (stereo partly drawn) [Compound 54, 3-(3-aminopropanamido)-N-((2S)-1-oxo-3-phenyl-1-(6-(pyridin-3-yl)-5,6-dihydropyridin-1(2H)-yl)propan-2-yl)benzamide hydrochloride]
2.5 µM | COc1cccc(C(=O)N[C@H](Cc2ccccc2)C(=O)N2CC=CCC2c2cccnc2)c1 (stereo partly drawn) [Compound 25, 3-methoxy-N-((2R)-1-oxo-3-phenyl-1-(6-(pyridin-3-yl)-5,6-dihydropyridin-1(2H)-yl)propan-2-yl)benzamide]
470 µM | COc1ccc(C(=O)N[C@@H](C)C(=O)N2CC=CCC2c2cccnc2)cc1OC (stereo partly drawn) [Compound 12, 3,4-dimethoxy-N-((2S)-1-oxo-1-(6-(pyridin-3-yl)-5,6-dihydropyridin-1(2H)-yl)propan-2-yl)benzamide]
2.5 µM | COc1cc(C(=O)N[C@@H](Cc2ccccc2)C(=O)N2CC=CCC2c2cccnc2)ccc1F (stereo partly drawn) [Compound 34, 4-fluoro-3-methoxy-N-((2S)-1-oxo-3-phenyl-1-(6-(pyridin-3-yl)-5,6-dihydropyridin-1(2H)-yl)propan-2-yl)benzamide]
170 µM | C[C@H](NC(=O)c1ccc(Cl)cc1)C(=O)N1CC=CCC1c1cccnc1 (stereo partly drawn) [Compound 14, 4-chloro-N-((2S)-1-oxo-1-(6-(pyridin-3-yl)-5,6-dihydropyridin-1(2H)-yl)propan-2-yl)benzamide]
0.114 µM | O=C(N[C@@H](Cc1ccccc1)C(=O)N1CC=CCC1c1cccnc1)c1cccnc1 (stereo partly drawn) [Compound 51, N-((2S)-1-oxo-3-phenyl-1-(6-(pyridin-3-yl)-5,6-dihydropyridin-1(2H)-yl)propan-2-yl)nicotinamide]

Source: patent US20220081415A1, “Amino Acid Derivatives for the Treatment of Inflammatory Diseases” (The Roskamp Institute, priority 2019, published 2022)
